Assay: Human HepG2 cell viability assay in 384 well format
Assay type: toxicity, cell-based
Parameters: dose 125 nL, time 70.5 hour; concentration not given beside the values
Conditions: HepG2 cells, read-out: Inhibition

Row | Structure (SMILES) | cytotoxicity at 70.5 h [%]
1 | O=C(NCC1CCN(CCc2ccccc2)C1)c1c(F)cccc1F (stereo not given) | 14.6
2 | CC(C)c1nc(C2CCCN(c3nccc(C(F)(F)F)n3)C2)no1 (stereo not given) | -2.52
3 | COC(=O)c1ccc(Cl)c(NS(=O)(=O)c2cn(C)cn2)c1 | 9.09
4 | CC(=O)NCc1ccc(C(=O)N2CCCC(n3cncn3)C2)o1 (stereo not given) | 20.5
5 | CCCc1n[nH]c(C2CN(C(=O)CCCn3ccnc3C)CCO2)n1 (stereo not given) | 4.08
6 | CC(C)c1cnc(CN(C)C2CCN(CCc3ccccn3)C2)o1 (stereo not given) | 13.1
7 | CCNC(=O)CN1CCN(c2ccnc3c(F)ccc(F)c23)CC1 | -7.66
8 | O=C(CN1CCN(c2ccnc3c(F)ccc(F)c23)CC1)NC1CC1 | 0.111
9 | NC(=O)c1cnc(NC2CCN(c3ccccc3)CC2)c(Cl)c1 | -1.28
10 | O=C(c1csc(-c2ncccn2)n1)N1CCN(C2CCCC2)CC1 | -5.27
11 | O=C(c1csc(-c2cccs2)n1)N1CCN2CCCCC2C1 (stereo not given) | -2.54
12 | COCCOCCC(=O)Nc1c(-c2ccc(F)cc2)ncn1C | 17
13 | COc1ccc(-c2cnc(CN3CCCC3Cn3cncn3)o2)cc1 (stereo not given) | -6.4
14 | CC(C)CC(=O)Nc1c(-c2ccc(F)cc2)ncn1C | 9.48
15 | CC(C)OCCC(=O)Nc1c(-c2ccc(F)cc2)ncn1C | 2.71
16 | Cc1[nH]c(=O)sc1S(=O)(=O)N1CCCC1C(=O)NCc1ccsc1 (stereo not given) | -4.24
17 | COc1ncc(C)cc1NC(=O)COc1ccccc1F | 11.7
18 | COCc1csc(NC(=O)NCc2ccsc2)n1 | -4.84
19 | Cc1nsc(NCCNS(=O)(=O)c2cccc(Cl)c2)n1 | 9.23
20 | Cc1c(NCC(C)(C)C)cccc1C(=O)NCc1ncnn1C | 14.6
21 | COc1cccc(OCC(=O)Nc2cc(C)cnc2OC)c1 | 2.85
22 | O=C(c1csc(-c2ncccn2)n1)N1CCN2CCCCC2C1 (stereo not given) | -5.52
23 | CC(CNS(C)(=O)=O)c1ccc(F)c(F)c1 (stereo not given) | -1.08
24 | CN(CCNc1cc(N2CCCC2CO)ncn1)Cc1ccccc1 (stereo not given) | -3.62

Row | Structure (SMILES) | cytotoxicity at 70.5 h [%]
25 | c1cncc(CN(Cc2ccc(-n3ccnc3)cc2)CC2CCCO2)c1 (stereo not given) | 13.2
26 | CS(=O)(=O)NC1CCN(c2cccc(F)c2C#N)CC1 | -16.5
27 | O=C(COC1CCCC1)NCCCn1nc2ccccn2c1=O | -16.2
28 | O=C(NCC1CC1)C1CSCN1S(=O)(=O)c1ccccc1F (stereo not given) | 4.99
29 | N#Cc1ccc(N2CCC(NS(=O)(=O)c3cccs3)CC2)c(F)c1 | -9.83
30 | Cc1cccc(S(=O)(=O)N2CSCC2C(=O)NCC2CC2)c1 (stereo not given) | -2.32
31 | Cc1nc(C)n(CC2CCCN2CC(=O)NCCc2cccs2)n1 (stereo not given) | -15.5
32 | Cc1cc(N2CCC(N(C)C(=O)c3sccc3C)CC2)nc(C)n1 | -4.75
33 | O=C(CCc1ccc(Cl)s1)N1CCCC(N2CCNC2=O)C1 (stereo not given) | -17.9
34 | Cc1cc(C)n(CC2CCCCN2C(=O)c2ccc3[nH]nnc3c2)n1 (stereo not given) | -17.7
35 | Cc1cnn(CC2CCCN2C(=O)c2ccc3c(c2)nnn3C)c1 (stereo not given) | -6.19
36 | CSCC(CCO)NC(=O)Nc1cccc(Br)c1C (stereo not given) | -21.2
37 | O=C(NCCCn1nc2ccccn2c1=O)NCCC1CCC1 | -3.21
38 | Cc1csc(N2CCN(Cc3cccnc3)CC2C)n1 (stereo not given) | -19.6
39 | CC(=O)NCCNC(=O)CN1CCCC1Cn1nc(C)nc1C (stereo not given) | -16.9
40 | Cc1csc(N2CCN(Cc3cscn3)CC2C)n1 (stereo not given) | -4.06
41 | CCC(CC)NC(=O)NCc1ccnc(-n2ccnc2C)c1 | -2.5
42 | CS(=O)(=O)NCC1CCCN(C(=O)c2ccc3c(c2)CCCC3)C1 (stereo not given) | 5.26
43 | CC(C)S(=O)(=O)NCC1CCCN(C(=O)c2ccc(F)cc2)C1 (stereo not given) | 9.08
44 | Cc1nccn1-c1cc(CNC(=O)C2CCC(=O)N2)ccn1 (stereo not given) | -6.29
45 | OCCN1CCC(CNCc2ccc(Br)cc2)CC1 | -1.11
46 | CC(Oc1ccccc1C(F)(F)F)C(=O)NCCCC(N)=O (stereo not given) | 11.1
47 | COc1c(C2CCCN2C(=O)c2ccco2)c(C)nn1C (stereo not given) | 8.77
48 | COc1c(C2CCCN2C(=O)c2cc(C3CC3)on2)c(C)nn1C (stereo not given) | -5.95

Row | Structure (SMILES) | cytotoxicity at 70.5 h [%]
49 | Cc1ccc(NC(=O)c2ccc(CC3CC(=O)NC3=O)cc2)cc1O (stereo not given) | -2.83
50 | CC1CN(C)c2ccccc2CN1C(=O)c1cnsn1 (stereo not given) | -0.187
51 | CC1CN(C)c2ccccc2CN1C(=O)c1cscn1 (stereo not given) | -5.75
52 | O=C(c1cncc(Br)c1)N1CCCc2c(F)cc(F)cc21 | -3
53 | Cc1ccc2c(c1)CCCN2C(=O)c1cncc(Br)c1 | 20.3
54 | Cc1cc(F)c2c(c1)CCCN2C(=O)c1cncc(Br)c1 | 0.703
55 | O=C(CN(Cc1ccco1)C1CC1)Nc1ccc(Br)cn1 | -17.6
56 | Cc1cc(C(C)NC(=O)CCn2nnc3ccccc3c2=O)c(C)o1 (stereo not given) | -5.41
57 | COCc1cccc(C(=O)N(C)Cc2ncc(C)c(OC)c2C)c1 | -8.49
58 | O=C1C(NCc2cccc(O)c2)CCN1Cc1ccccc1 (stereo not given) | -0.773
59 | CCOCC(=O)NC(C#N)c1cnn(-c2ccccc2)c1 (stereo not given) | -9.95
60 | COc1cccc(CCCn2cnnc2[S+](C)[O-])c1 (stereo not given) | -7.37
61 | CS(=O)(=O)c1nccn1Cc1ccc(C(N)=O)cc1 | -4.15
62 | COc1ccc(CCn2cnnc2[S+](C)[O-])cc1 (stereo not given) | -10
63 | O=C(c1cc[nH]n1)N(Cc1ccccc1)CC1CCC1 | -9.65
64 | CC(C)CN1Cc2cccc(NC(=O)Cc3ccon3)c2C1 | -4.05
65 | COc1ccc(CN2CCN(c3ncc(Cl)cn3)CC2)cc1 | 13.2
66 | O=C(CCc1ccco1)Nc1ccc(Br)cn1 | 28.6
67 | C[S+]([O-])c1nncn1CCc1ccccc1 (stereo not given) | 17.1
68 | Cc1cc(CSc2nc(=O)ccn2C(C)C)no1 | -3.31
69 | Cc1nc(CSc2nc(=O)ccn2C(C)C)cs1 | -6.6
70 | Cc1c(C(=O)N(CCN(C)C)Cc2ccccn2)oc2ccccc12 | -5.85
71 | Cc1occc1C(=O)N(CCN(C)C)Cc1ccccn1 | 15.9
72 | Cc1cnn(-c2ccc(C(=O)N3CCN(C)CC3C)cc2)c1 (stereo not given) | -3.9

Row | Structure (SMILES) | cytotoxicity at 70.5 h [%]
73 | CSC(C)C(=O)N1CCN(CCO)CC1 (stereo not given) | -6.94
74 | CC(C)COCCC(=O)NS(=O)(=O)c1ccc(Cl)s1 | -16.7
75 | CCC(Nc1nnnn1-c1ccccc1)C(=O)NCc1cccs1 (stereo not given) | -8.74
76 | Cc1cc(C(=O)N2CCN(Cn3cc(Cl)cn3)CC2)c(C)o1 | -5.19
77 | CC(=O)NC(C)C(=O)Nc1ccc(OCc2cccc(F)c2)cc1C (stereo not given) | -9.98
78 | CC(=O)N1CCN(C(=O)CNc2c(C)cccc2OC(F)F)CC1 | -10.2
79 | CN(C)S(=O)(=O)c1ccc(CSCC(=O)NC(C)(C)C)o1 | -8.48
80 | COc1ccsc1C(=O)Nc1cc(Cl)c(=O)n(C)c1 | -5.8
81 | CCc1ccc(C(=O)O)cc1S(=O)(=O)Nc1c(C)ccn(C)c1=O | -9.15
82 | O=C(COCC(F)(F)F)NC1CCCc2cc(OC(F)F)ccc21 (stereo not given) | -6.74
83 | CCc1ccsc1C(=O)N1CCS(=O)(=O)CC1 | -8.8
84 | CNC(=O)CC1CCN(C(=O)NCc2coc3ccccc23)CC1 | 7.31
85 | CCOc1cc(CNC(=O)C(C#N)c2nc(C)cs2)ccc1OC(F)F (stereo not given) | -0.465
86 | CC(=O)N1CCC(Nc2cccc(OC(F)F)c2C)CC1 | -7.15
87 | CN1CCN(C(=O)Cc2ccc(S(=O)(=O)C(F)F)cc2)CC1 | -8.11
88 | CCOCCCC(=O)NS(=O)(=O)c1ccc(C)s1 | -0.611
89 | COCCOC1CCN(C(=O)NCc2coc3ccccc23)CC1 | -6.59
90 | CC(c1ccccn1)N(C)C(=O)NCCn1c(=O)oc2ccccc21 (stereo not given) | 6.82
91 | Cc1ccc2c(c1)C(NCc1nccn1Cc1ccccc1)CCCO2 (stereo not given) | -13.4
92 | CC(C)c1nc(CNC(C(=O)N2CCOCC2)C(C)C)no1 (stereo not given) | -5.23
93 | Cc1nc(CNC(C(=O)N2CCOCC2)C(C)C)oc1C (stereo not given) | -5.87
94 | CN(CCOc1ccc(Cl)cc1)Cc1ccc(S(=O)(=O)N(C)C)o1 | -2.41
95 | Cc1noc(C)c1CC(=O)Nc1ccn(CC(N)=O)n1 | -5.49
96 | O=C(Nc1ccccn1)C1CCN(Cc2cccc3c2OCCO3)CC1 | 27.9

Row | Structure (SMILES) | cytotoxicity at 70.5 h [%]
97 | NC(=O)[C@@H]1Cc2ccccc2CN1S(=O)(=O)N1CCCCCC1 | -4.6
98 | CC(=O)N(C)c1nc(Cn2nnnc2C2CCCC2)cs1 | 0.35
99 | Cn1cnnc1C1CCCN(C(=O)c2cc(-c3ccccc3)on2)C1 (stereo not given) | -9.15
100 | CS(=O)(=O)c1cccc(C(=O)NCc2nc3cc(F)ccc3[nH]2)c1 | -5.23
101 | CN(CC(F)(F)F)C(=O)CNC(=O)N1CCCC(C(F)(F)F)C1 (stereo not given) | -2.98
102 | CC(NC(=O)Cc1ccccc1F)(C(N)=O)c1cccc(Cl)c1 (stereo not given) | -6.76
103 | CCc1nc(CC)n(CC(=O)NCc2cccc(C)c2)n1 | -6.53
104 | CSc1[nH]c(=O)c(C(=O)N2CCCC2c2cccs2)cc1C#N (stereo not given) | -2.03
105 | CNC(=O)CN1CCC(OCc2ccc(Cl)c(Cl)c2)CC1 | 3.41
106 | CC(NC(=O)Cc1cccs1)(C(N)=O)c1cccc(Cl)c1 (stereo not given) | 1.57
107 | CC(C)c1noc(CN2CCOCC2C)n1 (stereo not given) | -4.78
108 | CC(C)Cc1noc(CN2CCOCC2C)n1 (stereo not given) | -1.45
109 | CCCc1noc(CN2CCOCC2C)n1 (stereo not given) | 20.1
110 | CCc1nc(CC)n(CC(=O)NCc2ccccc2C)n1 | -10.6
111 | CC(O)(CNC(=O)c1cccnc1-n1cccn1)c1ccsc1 (stereo not given) | -7.4
112 | COCCN1CCC(CNC(=O)c2cc(Cl)c[nH]2)CC1 | -11.1
113 | CSCc1cc(F)ccc1CNCc1cccnc1 | -6.28
114 | CCn1nc(C)cc1C(=O)NCc1noc(C(C)(C)C)n1 | -1.63
115 | Cn1c(CC2CCS(=O)(=O)C2)nnc1SCCOc1ccccc1F (stereo not given) | -8.16
116 | N#CCCN(C(=O)CN1CCCC1C1CCCCC1)c1ccccc1 (stereo not given) | 11.9
117 | Cc1ccc2oc(CNC(C)c3nnc4n3CCCC4)cc2c1 (stereo not given) | 5.79
118 | CC(NCc1ccc(Cl)o1)c1nnc2n1CCCC2 (stereo not given) | 9.09
119 | Cc1ccc(C(=O)NCCS(C)(=O)=O)c(=O)[nH]1 | -5.11
120 | COc1cc(CN(C)C(=O)NCCC2CCCO2)ccc1SC (stereo not given) | -3.73
